Data published in patent publication US10494332B2, “Protein tyrosine phosphatases or SHP2 inhibitors and uses thereof” (Indiana University Research and Technology Corporation, priority 2015, dated 2019).
Where “and” joins values, the source holds several entries; their conditions need not be identical. Equal values may be shown once. Read-outs that look alike come from different tables or passages of the source.

Key:
mPTPB = target: T1, mPTPB (Mycobacterium tuberculosis, UniProt I6WXK4); experiment: biochemical
T1 sequence (I6WXK4 1-276): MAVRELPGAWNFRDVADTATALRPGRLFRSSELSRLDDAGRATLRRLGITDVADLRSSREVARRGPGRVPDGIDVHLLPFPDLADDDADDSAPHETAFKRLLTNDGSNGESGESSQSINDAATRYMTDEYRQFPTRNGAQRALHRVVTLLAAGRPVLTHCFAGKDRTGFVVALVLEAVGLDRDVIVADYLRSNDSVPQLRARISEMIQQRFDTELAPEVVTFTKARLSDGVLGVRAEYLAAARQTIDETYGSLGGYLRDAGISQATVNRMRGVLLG

mPTPA = mPTPA (Mycobacterium tuberculosis, UniProt P9WIA1); experiment: biochemical
SHP1 = SHP1 (Homo sapiens, UniProt P29350); experiment: PTP inhibition assay (pNPP); type: biochemical; conditions: pNPP at Km, pH 7.0, 25° C.
SHP2 = target: T2, SHP2 (Homo sapiens, UniProt Q06124); experiment: SHP2 phosphatase inhibition assay (pNPP); type: biochemical; conditions: pNPP at Km, pH 7.0, 25° C.; read-out: IC50 SHP2
T2 sequence (Q06124 224-528): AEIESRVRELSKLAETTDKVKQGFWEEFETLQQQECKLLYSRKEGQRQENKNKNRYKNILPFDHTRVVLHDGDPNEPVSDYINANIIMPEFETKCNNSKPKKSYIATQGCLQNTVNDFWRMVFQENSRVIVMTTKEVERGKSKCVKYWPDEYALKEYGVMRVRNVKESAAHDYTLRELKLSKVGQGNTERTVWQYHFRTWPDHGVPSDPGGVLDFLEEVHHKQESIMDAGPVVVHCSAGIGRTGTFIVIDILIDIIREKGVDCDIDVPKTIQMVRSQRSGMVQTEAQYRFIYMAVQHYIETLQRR

Meg2 = target: T3, Meg2 (Homo sapiens, UniProt P43378); experiment: PTP inhibition assay (pNPP); type: biochemical
T3 sequence (P43378 1-593): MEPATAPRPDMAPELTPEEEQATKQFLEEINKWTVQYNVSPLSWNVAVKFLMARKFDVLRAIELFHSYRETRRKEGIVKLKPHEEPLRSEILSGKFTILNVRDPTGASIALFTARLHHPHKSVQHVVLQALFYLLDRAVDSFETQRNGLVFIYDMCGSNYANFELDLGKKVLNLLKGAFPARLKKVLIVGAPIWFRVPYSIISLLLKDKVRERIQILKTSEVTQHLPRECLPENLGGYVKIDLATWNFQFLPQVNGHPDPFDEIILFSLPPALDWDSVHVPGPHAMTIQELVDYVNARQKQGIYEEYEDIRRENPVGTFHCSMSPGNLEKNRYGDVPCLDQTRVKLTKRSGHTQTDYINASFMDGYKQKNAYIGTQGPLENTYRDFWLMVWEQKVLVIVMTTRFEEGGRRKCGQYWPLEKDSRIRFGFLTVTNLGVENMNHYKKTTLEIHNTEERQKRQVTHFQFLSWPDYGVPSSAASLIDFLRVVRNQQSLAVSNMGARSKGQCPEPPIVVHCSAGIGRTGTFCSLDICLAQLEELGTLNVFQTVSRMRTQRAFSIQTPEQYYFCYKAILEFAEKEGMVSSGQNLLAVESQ

PTPγ = PTPγ (Homo sapiens, UniProt P23470); experiment: PTP inhibition assay (pNPP); type: biochemical
STEP = target: T4, STEP (Homo sapiens, UniProt P54829); experiment: PTP inhibition assay (pNPP); type: biochemical; conditions: pNPP at Km, pH 7.0, 25° C.
T4 sequence (P54829 1-565): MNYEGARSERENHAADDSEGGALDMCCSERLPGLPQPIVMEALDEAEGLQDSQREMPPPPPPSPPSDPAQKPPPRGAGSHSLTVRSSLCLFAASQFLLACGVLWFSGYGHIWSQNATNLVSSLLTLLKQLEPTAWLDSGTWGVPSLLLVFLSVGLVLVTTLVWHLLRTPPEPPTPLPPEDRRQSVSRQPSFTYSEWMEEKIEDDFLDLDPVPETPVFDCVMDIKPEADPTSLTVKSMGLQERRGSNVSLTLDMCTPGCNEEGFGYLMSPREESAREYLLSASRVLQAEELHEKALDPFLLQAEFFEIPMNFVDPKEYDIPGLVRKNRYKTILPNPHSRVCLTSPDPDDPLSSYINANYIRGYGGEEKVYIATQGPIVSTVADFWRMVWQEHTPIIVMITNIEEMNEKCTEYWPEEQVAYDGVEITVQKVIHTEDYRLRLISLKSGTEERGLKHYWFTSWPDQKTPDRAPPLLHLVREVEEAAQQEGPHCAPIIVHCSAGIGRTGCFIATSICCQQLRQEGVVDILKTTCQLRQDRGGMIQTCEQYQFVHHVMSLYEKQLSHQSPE

VHX = target: T5, VHX (Homo sapiens, UniProt Q9NRW4); experiment: PTP inhibition assay (pNPP); type: biochemical
T5 sequence (Q9NRW4 1-184): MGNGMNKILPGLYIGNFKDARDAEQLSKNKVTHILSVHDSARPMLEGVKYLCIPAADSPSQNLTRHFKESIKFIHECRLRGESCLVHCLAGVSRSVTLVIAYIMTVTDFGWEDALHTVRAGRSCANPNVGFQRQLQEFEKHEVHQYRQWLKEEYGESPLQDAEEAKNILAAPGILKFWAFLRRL

PTPμ = PTPμ (Homo sapiens, UniProt P28827); experiment: PTP inhibition assay (pNPP)
[1] = IC50 VHX (second VHX line of Table 15), pNPP at Km, pH 7.0, 25° C.
[2] = IC50 VHX, pNPP at Km, pH 7.0, 25° C.
[3] = pNPP at Km, pH 7.0, 25° C.; read-out: IC50 VHX
[4] = pNPP at Km, pH 7.0, 25° C.; read-out: IC50 VHX (second VHX line of Table 15)

SHP1, sequence (P29350 whole entry): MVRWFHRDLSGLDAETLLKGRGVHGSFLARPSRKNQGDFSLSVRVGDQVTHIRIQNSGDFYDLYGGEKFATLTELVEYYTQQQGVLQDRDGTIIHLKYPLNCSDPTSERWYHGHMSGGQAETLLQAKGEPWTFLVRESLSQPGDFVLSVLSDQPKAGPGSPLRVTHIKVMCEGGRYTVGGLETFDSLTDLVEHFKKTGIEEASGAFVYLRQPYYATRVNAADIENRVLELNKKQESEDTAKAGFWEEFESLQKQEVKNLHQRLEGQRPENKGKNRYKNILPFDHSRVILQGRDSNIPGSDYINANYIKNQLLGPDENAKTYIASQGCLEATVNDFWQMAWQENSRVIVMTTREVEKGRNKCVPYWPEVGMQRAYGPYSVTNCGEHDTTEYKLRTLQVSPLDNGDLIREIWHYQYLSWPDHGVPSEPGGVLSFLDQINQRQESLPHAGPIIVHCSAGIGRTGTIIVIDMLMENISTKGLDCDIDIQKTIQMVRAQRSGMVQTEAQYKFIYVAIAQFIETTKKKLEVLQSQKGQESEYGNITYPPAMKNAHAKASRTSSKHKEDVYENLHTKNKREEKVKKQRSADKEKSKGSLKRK
PTPγ, sequence (P23470 20-1445): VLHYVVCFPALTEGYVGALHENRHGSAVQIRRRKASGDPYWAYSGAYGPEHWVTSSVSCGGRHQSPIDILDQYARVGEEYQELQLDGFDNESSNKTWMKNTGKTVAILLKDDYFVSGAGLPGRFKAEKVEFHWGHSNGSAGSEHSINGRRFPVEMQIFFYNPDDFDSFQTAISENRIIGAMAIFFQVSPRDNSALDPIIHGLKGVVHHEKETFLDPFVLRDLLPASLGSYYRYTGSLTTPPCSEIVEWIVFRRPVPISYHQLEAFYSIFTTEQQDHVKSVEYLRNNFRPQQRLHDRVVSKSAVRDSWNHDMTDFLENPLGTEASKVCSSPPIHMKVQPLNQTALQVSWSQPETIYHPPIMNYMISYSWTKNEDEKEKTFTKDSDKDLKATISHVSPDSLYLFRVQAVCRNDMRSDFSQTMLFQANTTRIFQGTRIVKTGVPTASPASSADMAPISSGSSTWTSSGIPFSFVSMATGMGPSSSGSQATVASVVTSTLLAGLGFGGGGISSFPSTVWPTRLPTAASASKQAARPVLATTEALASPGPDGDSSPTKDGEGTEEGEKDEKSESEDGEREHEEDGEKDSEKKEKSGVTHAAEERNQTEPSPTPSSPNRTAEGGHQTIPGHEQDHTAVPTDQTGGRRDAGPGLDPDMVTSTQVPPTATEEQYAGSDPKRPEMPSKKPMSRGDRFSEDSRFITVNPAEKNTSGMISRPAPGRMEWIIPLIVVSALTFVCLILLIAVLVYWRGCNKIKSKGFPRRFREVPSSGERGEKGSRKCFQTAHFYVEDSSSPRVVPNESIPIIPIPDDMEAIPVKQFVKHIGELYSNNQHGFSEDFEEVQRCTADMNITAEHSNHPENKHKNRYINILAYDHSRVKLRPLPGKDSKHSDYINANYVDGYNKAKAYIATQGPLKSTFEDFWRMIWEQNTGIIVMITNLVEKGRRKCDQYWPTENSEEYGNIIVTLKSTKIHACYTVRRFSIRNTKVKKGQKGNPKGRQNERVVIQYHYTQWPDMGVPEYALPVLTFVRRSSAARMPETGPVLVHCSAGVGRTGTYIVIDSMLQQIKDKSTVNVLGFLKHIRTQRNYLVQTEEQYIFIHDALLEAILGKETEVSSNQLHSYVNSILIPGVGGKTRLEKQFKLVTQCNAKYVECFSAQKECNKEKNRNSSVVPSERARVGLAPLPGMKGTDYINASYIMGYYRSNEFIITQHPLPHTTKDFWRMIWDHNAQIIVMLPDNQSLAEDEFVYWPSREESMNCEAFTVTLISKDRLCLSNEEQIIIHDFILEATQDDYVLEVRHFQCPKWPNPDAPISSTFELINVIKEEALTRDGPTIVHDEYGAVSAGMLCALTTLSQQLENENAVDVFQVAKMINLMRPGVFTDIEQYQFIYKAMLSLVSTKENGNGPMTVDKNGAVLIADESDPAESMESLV
mPTPA, sequence (P9WIA1 whole entry): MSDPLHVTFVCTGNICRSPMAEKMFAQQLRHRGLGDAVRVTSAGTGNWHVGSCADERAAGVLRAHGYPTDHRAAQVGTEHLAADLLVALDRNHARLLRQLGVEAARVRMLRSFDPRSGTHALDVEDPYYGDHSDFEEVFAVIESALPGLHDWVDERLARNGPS
PTPμ, sequence (P28827 21-1452): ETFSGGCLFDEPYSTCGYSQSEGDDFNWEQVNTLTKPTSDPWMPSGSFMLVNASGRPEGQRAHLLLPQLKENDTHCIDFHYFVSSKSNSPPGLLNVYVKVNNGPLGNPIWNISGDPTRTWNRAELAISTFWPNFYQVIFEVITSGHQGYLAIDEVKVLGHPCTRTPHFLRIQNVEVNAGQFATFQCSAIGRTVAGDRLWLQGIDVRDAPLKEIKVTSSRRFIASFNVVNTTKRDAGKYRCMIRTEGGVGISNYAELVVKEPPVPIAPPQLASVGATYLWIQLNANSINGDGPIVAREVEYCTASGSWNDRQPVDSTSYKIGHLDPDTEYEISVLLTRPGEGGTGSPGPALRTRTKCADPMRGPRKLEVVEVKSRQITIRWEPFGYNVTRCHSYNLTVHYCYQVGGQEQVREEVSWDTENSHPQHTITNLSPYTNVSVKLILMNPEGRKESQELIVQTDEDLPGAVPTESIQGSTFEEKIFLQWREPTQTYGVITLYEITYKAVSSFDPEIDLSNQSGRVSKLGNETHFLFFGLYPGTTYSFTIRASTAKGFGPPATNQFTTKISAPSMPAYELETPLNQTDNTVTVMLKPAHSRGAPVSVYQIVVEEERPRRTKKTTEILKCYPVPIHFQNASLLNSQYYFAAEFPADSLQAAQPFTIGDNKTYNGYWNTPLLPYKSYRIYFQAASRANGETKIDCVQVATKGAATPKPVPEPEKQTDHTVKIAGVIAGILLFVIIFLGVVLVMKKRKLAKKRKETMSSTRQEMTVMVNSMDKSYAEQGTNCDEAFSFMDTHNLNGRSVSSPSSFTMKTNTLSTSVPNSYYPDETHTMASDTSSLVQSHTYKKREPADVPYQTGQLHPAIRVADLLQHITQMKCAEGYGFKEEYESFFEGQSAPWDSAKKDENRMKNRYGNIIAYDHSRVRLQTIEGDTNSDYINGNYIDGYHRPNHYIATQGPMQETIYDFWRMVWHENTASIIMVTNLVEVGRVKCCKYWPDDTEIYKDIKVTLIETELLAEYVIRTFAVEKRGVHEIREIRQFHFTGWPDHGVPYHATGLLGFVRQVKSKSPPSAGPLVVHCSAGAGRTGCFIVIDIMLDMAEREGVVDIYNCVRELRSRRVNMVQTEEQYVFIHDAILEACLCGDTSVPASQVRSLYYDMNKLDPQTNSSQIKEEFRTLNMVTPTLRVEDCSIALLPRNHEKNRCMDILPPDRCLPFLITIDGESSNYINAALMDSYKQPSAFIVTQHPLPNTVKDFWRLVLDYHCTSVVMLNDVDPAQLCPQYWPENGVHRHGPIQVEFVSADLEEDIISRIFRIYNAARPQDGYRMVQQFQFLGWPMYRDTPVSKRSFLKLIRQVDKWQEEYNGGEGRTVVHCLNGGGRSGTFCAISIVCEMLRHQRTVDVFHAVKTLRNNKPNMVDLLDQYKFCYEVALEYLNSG

SMILES: Cc1c(Br)cc(NC(=O)CS(=O)(=O)O)cc1Br
- IC50 (mPTPB; Biochemical potency against target (Ic50, nM) mPTPB): > 3200 nM
- IC50 (mPTPB; IC50 mPTPB): 3100 nM
- Ki (mPTPA): 0.056 ± 0.002 µM
- Mode of mPTPA inhibition (mPTPA): reversible and competitive inhibitor
- IC50 (mPTPA; Biochemical potency against target (Ic50, nM) mPTPA): 160 nM
- IC50 (mPTPA; IC50 mPTPA): 160 nM
- IC50 (SHP1): > 100 µM
- IC50 (SHP2): > 100 µM
- IC50 (Meg2): > 100 µM
- IC50 (PTPγ): > 100 µM
- IC50 (STEP; IC50 STEP): > 100 µM
- IC50 (VHX; [1]): > 100 µM
- IC50 (VHX; [2]): > 100 µM
- IC50 (PTPμ): > 100 µM

SMILES: O=C(CS(=O)(=O)O)Nc1ccc2nc(C(F)(F)F)[nH]c2c1
- IC50 (mPTPA; IC50 mPTPA): 650 nM
- IC50 (SHP1): > 100 µM
- IC50 (SHP2): > 100 µM
- IC50 (Meg2): > 100 µM
- IC50 (PTPγ): > 100 µM
- IC50 (STEP; read-out: IC50 STEP): > 100 µM
- IC50 (VHX; [3]): > 100 µM
- IC50 (VHX; [4]): > 100 µM
- IC50 (PTPμ): > 100 µM

SMILES: O=C(CS(=O)(=O)O)Nc1cnc2ccccc2c1
- IC50 (mPTPB; IC50 mPTPB): 55000 nM
- IC50 (mPTPA; IC50 mPTPA): 3000 nM
- IC50 (SHP1): > 100 µM
- IC50 (SHP2): > 100 µM
- IC50 (Meg2): > 100 µM
- IC50 (PTPγ): > 100 µM
- IC50 (STEP; read-out: IC50 STEP): > 100 µM
- IC50 (VHX; [3]): > 100 µM
- IC50 (VHX; [4]): > 100 µM
- IC50 (PTPμ): > 100 µM

SMILES: O=C(NCCNC(=O)C(c1ccccc1)S(=O)(=O)O)c1cccc(C(=O)c2ccccc2)c1 (centres unmarked) [Compound L319-02-A60]
- IC50 (SHP1): > 200 µM
- IC50 (SHP2): > 200 µM
- IC50 (STEP; read-out: IC50 STEP): > 200 µM
- IC50 (VHX; [3]): > 200 µM

SMILES: O=C(NCc1ccc(NC(=O)C(c2ccccc2)S(=O)(=O)O)cc1)c1ccccc1-c1ccc(C(F)(F)F)cc1 (centres unmarked) [Compound L319-05-A64]
- IC50 (SHP2): 69 µM
- IC50 (STEP; read-out: IC50 STEP): > 100 µM

SMILES: CCCCc1ccc(NC(=O)C(=O)Nc2ccccc2NC(=O)C(c2ccccc2)S(=O)(=O)O)cc1 (centres unmarked) [Compound L319-21-M06]
- IC50 (SHP1): > 50 µM
- IC50 (SHP2): > 50 µM
- IC50 (STEP; read-out: IC50 STEP): > 50 µM
- IC50 (VHX; [3]): > 50 µM

SMILES: O=C(Nc1cccc(OCc2ccccc2)c1)C(=O)Nc1ccccc1NC(=O)C(c1ccccc1)S(=O)(=O)O (centres unmarked) [Compound L319-21-M52]
- IC50 (SHP1): > 50 µM
- IC50 (SHP2): > 50 µM
- IC50 (STEP; read-out: IC50 STEP): > 50 µM
- IC50 (VHX; [3]): > 50 µM

SMILES: Cc1c(Br)cc(NC(=O)C(c2ccccc2)S(=O)(=O)O)cc1Br (centres unmarked) [Compound L319M34]
- IC50 (mPTPB; IC50 mPTPB): 50 to 200 nM and 55 nM
- IC50 (mPTPA; IC50 mPTPA): 196 nM
- IC50 (SHP1): 55.5 µM
- IC50 (SHP2): > 100 µM
- IC50 (STEP; IC50 STEP): > 200 µM
- IC50 (VHX; [1]): > 200 µM
- IC50 (VHX; [2]): 92 µM
- IC50 (VHX; read-out: IC50 VHX; pNPP at Km, pH 7.0, 25° C.): 92 µM

SMILES: O=C(Nc1ccc(OCc2ccccc2)c(Cl)c1)C(c1ccccc1)S(=O)(=O)O (centres unmarked) [Compound L319M50]
- IC50 (SHP1): 53.2 µM
- IC50 (SHP2): > 200 µM
- IC50 (STEP; read-out: IC50 STEP): > 200 µM
- IC50 (VHX; [3]): > 100 µM

SMILES: O=C(Nc1cccc(OCc2ccccc2)c1)C(c1ccccc1)S(=O)(=O)O (centres unmarked) [Compound L319M52]
- IC50 (mPTPB; IC50 mPTPB): 106 nM
- IC50 (mPTPA; IC50 mPTPA): 560 nM
- IC50 (SHP1): > 200 µM and 62.3 µM
- IC50 (SHP2): > 200 µM
- IC50 (Meg2): > 200 µM
- IC50 (PTPγ): > 200 µM
- IC50 (STEP; read-out: IC50 STEP): > 200 µM
- IC50 (VHX; [3]): 170 µM and > 100 µM
- IC50 (PTPμ): > 200 µM
